System: 425362-245-T-J1 tumor spheroids, viability % test/control
Assay: Anticancer human tumor 425362-245-T-J1 patient-derived melanoma cell line growth inhibition
Details: spheroids with HUVEC and MSC; for IC50: curve of first compound; for viability, T/C: stronger effect = lower value
Procedure, shortened: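 Complex spheroids of malignant cells with endothelial cells and mesenchymal stem cells; agents alone or combined, from near clinical Cmax (or 10 microM if unknown) down in half-log steps, 0.25% DMSO final.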

[1] = second compound 1 µM, first compound 0.0316 µM
[2] = second compound 1 µM, first compound 0.1 µM
[3] = second compound 1 µM, first compound 0.316 µM
[4] = second compound 1 µM, first compound 1 µM
[5] = second compound 1 µM, first compound 3.16 µM
[6] = second compound 1 µM, first compound 10 µM
[7] = second compound 3.16 µM, first compound 0.0316 µM
[8] = second compound 3.16 µM, first compound 0.1 µM
[9] = second compound 3.16 µM, first compound 0.316 µM
[10] = second compound 3.16 µM, first compound 1 µM
[11] = second compound 3.16 µM, first compound 3.16 µM
[12] = second compound 3.16 µM, first compound 10 µM
[13] = second compound 10 µM, first compound 0.0316 µM
[14] = second compound 10 µM, first compound 0.1 µM
[15] = second compound 10 µM, first compound 0.316 µM
[16] = second compound 10 µM, first compound 1 µM
[17] = second compound 10 µM, first compound 3.16 µM
[18] = second compound 10 µM, first compound 10 µM
[19] = second compound 31.6 µM, first compound 0.0316 µM
[20] = second compound 31.6 µM, first compound 0.1 µM
[21] = second compound 31.6 µM, first compound 0.316 µM
[22] = second compound 31.6 µM, first compound 1 µM
[23] = second compound 31.6 µM, first compound 3.16 µM
[24] = second compound 31.6 µM, first compound 10 µM
[25] = second compound 100 µM, first compound 0.0316 µM
[26] = second compound 100 µM, first compound 0.1 µM
[27] = second compound 100 µM, first compound 0.316 µM
[28] = second compound 100 µM, first compound 1 µM
[29] = second compound 100 µM, first compound 3.16 µM
[30] = second compound 100 µM, first compound 10 µM
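Note: spheroids exposed to agents for 7 days.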

Row | Structure (SMILES) | IC50 (second compound 1 µM) | IC50 (second compound 3.16 µM) | IC50 (second compound 10 µM) | IC50 (second compound 31.6 µM) | IC50 (second compound 100 µM) | viability, T/C [1] | viability, T/C [2] | viability, T/C [3] | viability, T/C [4] | viability, T/C [5] | viability, T/C [6] | viability, T/C [7] | viability, T/C [8] | viability, T/C [9] | viability, T/C [10] | viability, T/C [11] | viability, T/C [12] | viability, T/C [13] | viability, T/C [14] | viability, T/C [15] | other results
1 | CC(C)n1c(=O)n(C)c2cnc3cc(F)c(-c4ccc(OCCCN5CCCCC5)nc4)cc3c21 + Cn1nnc2c(C(N)=O)ncn2c1=O | 124 nM | 225 nM | 266 nM | 141 nM | < 31.6 nM | 57.7% | 55.8% | 36.1% | 20.8% | 13.7% | 5.19% | 77.4% | 67% | 43% | 20.6% | 19.5% | 6.63% | 74.2% | 72% | 45.1% | viability, T/C [16]: 21.4%; viability, T/C [17]: 18.9%; viability, T/C [18]: 5.99%; viability, T/C [19]: 67.8%; viability, T/C [20]: 58.5%; viability, T/C [21]: 32.8%; viability, T/C [22]: 19.8%; viability, T/C [23]: 14.5%; viability, T/C [24]: 6.37%; viability, T/C [25]: 45.8%; viability, T/C [26]: 23.7%; viability, T/C [27]: 17.5%; viability, T/C [28]: 12.1%; viability, T/C [29]: 8.75%; viability, T/C [30]: 5.3%
2 | COc1ccc([C@@H](O)c2cc(-c3ncnc4cc(N5CCOCC5)ccc34)c(F)cc2Cl)nn1 + Cn1nnc2c(C(N)=O)ncn2c1=O | 2300 nM | 2570 nM | 2500 nM | 2670 nM | 2100 nM | 91% | 95.6% | 87.5% | 70.2% | 42.5% | 19.1% | 101% | 111% | 104% | 76.2% | 45.7% | 20.3% | 111% | 117% | 113% | viability, T/C [16]: 74.8%; viability, T/C [17]: 46.6%; viability, T/C [18]: 22.2%; viability, T/C [19]: 110%; viability, T/C [20]: 109%; viability, T/C [21]: 94%; viability, T/C [22]: 78.9%; viability, T/C [23]: 44%; viability, T/C [24]: 20.8%; viability, T/C [25]: 101%; viability, T/C [26]: 84.7%; viability, T/C [27]: 82.2%; viability, T/C [28]: 65.1%; viability, T/C [29]: 40.3%; viability, T/C [30]: 20.5%

From PubChem BioAssay AID1845198 (Molecular Pharmacology Branch, DTP, NCI, 2023)
